For data set [1], the system named is short chain dehydrogenase enzyme that converts 11-cis-retinol into 11-cis-retinal. Particulars: Radu et al 2003; cited from earlier work.
Data set [2] deals with ABCR −/− mice. Particulars: mice with genetically engineered ABCR −/− gene defect; Radu et al 2003, US 2003/032,078; cited from earlier work.
Data set [3] relates to RPE65. The note with it: Gollapalli et al 2004; cited from earlier work.
For data set [4] the following is noted: people taking isotretinoin; decreased acuity under moderately dark conditions; cited from earlier work.
The test system of data set [5] is rabbit or bovine RPE cells. Particulars: added to RPE cell cultures; high oxygen concentrations or intense blue light; Sundelin 2001, Shaban 2002, Nilsson 2003; cited from earlier work.
For data set [6] the following is noted: high dosage, people with risk factors such as smoking; cited from earlier work.
Data set [7] can be described thus: Laser-verteporfin photodynamic therapy in a patient with wet macular degeneration who was taking zeaxanthin. Type of data set: in vivo, human. The note with it: one patient, zeaxanthin 20 milligrams per day for several months before treatment. An excerpt:
Additional insights arose from a fortuitous event involving an elderly acquaintance of the Applicant, who was taking zeaxanthin and who decided to have a treatment known as “photodynamic therapy”, which uses a laser to convert a drug called verteporfin into a toxin that will kill and seal newly-growing blood vessels in the retina. The patient's doctor, who is regarded as one of the world's foremost experts in treating macular degeneration, advised the patient to stop taking zeaxanthin before the laser treatment, because (in the physician's opinion) it likely would not help, and it might interfere with the laser treatment. That advice was entirely consistent with the packaging information that accompanies verteporfin, which states that carotenoids should be avoided before treatment, since they may interfere with the treatment.
That discovery and invention arose from an event involving a personal acquaintance of the Inventor. That person was suffering from the “wet” or “exudative” form of macular degeneration, which involves abnormal and aggressive blood vessel growth in and behind the macula. They decided to have a treatment known as “photodynamic therapy”, which uses a laser that is shone directly into the eye of a patient who has been anesthetized. […]

RPE65, sequence (Q16518 whole entry, species assumed): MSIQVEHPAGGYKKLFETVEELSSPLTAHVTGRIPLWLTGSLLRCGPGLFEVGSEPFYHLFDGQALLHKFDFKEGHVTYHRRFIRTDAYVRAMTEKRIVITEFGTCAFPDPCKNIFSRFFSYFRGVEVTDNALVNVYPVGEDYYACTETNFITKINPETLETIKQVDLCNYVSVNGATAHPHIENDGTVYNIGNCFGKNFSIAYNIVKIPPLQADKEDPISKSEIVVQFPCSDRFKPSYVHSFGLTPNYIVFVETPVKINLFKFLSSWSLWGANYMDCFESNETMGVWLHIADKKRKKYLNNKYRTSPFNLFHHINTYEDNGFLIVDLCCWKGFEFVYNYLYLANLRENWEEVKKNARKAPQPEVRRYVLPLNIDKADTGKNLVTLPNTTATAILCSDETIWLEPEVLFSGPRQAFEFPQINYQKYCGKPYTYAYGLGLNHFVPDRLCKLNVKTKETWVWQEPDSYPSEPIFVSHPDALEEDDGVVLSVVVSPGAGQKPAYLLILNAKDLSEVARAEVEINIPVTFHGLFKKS

For the compound `CC1=C(/C=C/C(C)=C/C=C/C(C)=C\C(=O)O)C(C)(C)CCC1` [isotretinoin, 13-cis-retinoic acid], the “inhibition of short chain dehydrogenase” value in data set [1] is on record as “inhibit at least two different enzymes involved in vision”. Moreover, in data set [2], the “accumulation of lipofuscin in the retinas” value was “can help slow and reduce the accumulation of lipofuscin”. Further, the “inhibition of RPE65” value in data set [3] is given as “inhibit at least two different enzymes involved in vision”. In data set [4], the vision side effect entry is “night blindness”.
For `CC(C)=CCC/C(C)=C/C=C/C(C)=C/C=C/C(C)=C/C=C/C=C(C)/C=C/C=C(C)/C=C/C=C(\C)CCC=C(C)C` [lycopene], in data set [5], the cell toxicity entry is listed as “helped suppress cell toxicity”; the formation of lipofuscin result is “helped suppress cell toxicity and the formation of lipofuscin”.
For the compound `O=C1O[C@H]([C@@H](O)CO)C(O)=C1O` [Vitamin C], the formation of lipofuscin entry in data set [5] is “helped suppress cell toxicity and the formation of lipofuscin”.
Regarding `CC1=C(/C=C/C(C)=C/C=C/C(C)=C/C=C/C=C(C)/C=C/C=C(C)/C=C/C2=C(C)CCCC2(C)C)C(C)(C)CCC1` [beta-carotene], the “rates and risks of lung cancer” value in data set [6] is “actually increases the rates and risks of lung cancer”.
As for `CC1=C(/C=C/C(C)=C/C=C/C(C)=C/C=C/C=C(C)/C=C/C=C(C)/C=C/C2=C(C)C[C@@H](O)CC2(C)C)C(C)(C)C[C@H](O)C1` [zeaxanthin, 3R,3′R-zeaxanthin], in data set [7], the “results of the laser-verteporfin treatment” value is “much better than anyone had expected”. For the same compound, in data set [5], the cell toxicity result is on record as “helped suppress cell toxicity”; the formation of lipofuscin entry is “helped suppress cell toxicity and the formation of lipofuscin”.
With `CC1=C[C@H](O)CC(C)(C)[C@H]1/C=C/C(C)=C/C=C/C(C)=C/C=C/C=C(C)/C=C/C=C(C)/C=C/C1=C(C)C[C@@H](O)CC1(C)C` [lutein], in data set [5], the cell toxicity result was “helped suppress cell toxicity”; the formation of lipofuscin result is “helped suppress cell toxicity and the formation of lipofuscin”.
For Vitamin E, in data set [5], the cell toxicity entry is on record as “helped suppress cell toxicity”; the formation of lipofuscin result is “helped suppress cell toxicity and the formation of lipofuscin”.

Values taken from patent publication US20060089411A1, “Treatment of Stargardt's disease and other lipofuscin disorders with combined retinaldehyde inhibitor and zeaxanthin” (priority 2004, published 2006).
